The source of these data is ChEMBL document CHEMBL1201862, “PubChem BioAssay data set” (2004).

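Protocol summary: plate cells (96-well), add compound at 5 concentrations, incubate 48 h, interpolate endpoints linearly. GI50 is the concentration that inhibits growth by half.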 Calls of active or inactive are those of the source. No stated cut-off is given here; in the data, active = GI50 up to about 1.1 µM and inactive = higher.

Among the test systems are A549; Malme-3M; A498; SNB-19; SK-MEL-2; HT-29; ACHN; SK-OV-3; HL-60; IGROV-1; COLO 205; HOP-62; HCT-15; SW-620; SK-MEL-28; UO-31; HCC 2998.
What all share (test): DTP human tumour cell line panel, 48 h

Regarding `CCCCCCCCCCCc1c(O)c(=O)c2c(oc3c(=O)c(CCCCCCCCCCC)c(O)c(=O)c3n2-c2ccc(N(C)C)cc2)c1=O`, the GI50 in the assay on A549 is 23.6 µM (inactive); with Malme-3M it was 22.4 µM (inactive); in the assay with A498 it was 20.7 µM (inactive); in the assay with SNB-19, 20.8 µM (inactive); with SK-MEL-2, 21.7 µM (inactive); with HT-29, 23.1 µM (inactive). The GI50 with ACHN is 20.7 µM (inactive); with SK-OV-3, 19.7 µM (inactive); with HL-60, 27.1 µM (inactive); in the assay with IGROV-1, 24.3 µM (inactive); in the assay on COLO 205, 20 µM (inactive); with HOP-62, 20.7 µM (inactive). Further, the GI50 was 18.6 µM in the assay on HCT-15, 24 µM (inactive) with SW-620 and 18 µM (inactive) in the assay with SK-MEL-28.
Turning to `CCCCCC#COC1CC(C)CC[C@@H]1C(C)C` (stereo partly specified), the GI50 in the assay on A549 is 56.5 µM (inactive); in the assay with Malme-3M, > 100 µM (inactive); with SNB-19 it was 58.1 µM (inactive); with SK-MEL-2 it was > 100 µM (inactive); in the assay on HT-29 it was 59.4 µM (inactive); in the assay on UO-31, 50.4 µM (inactive). The GI50 is 78.2 µM (inactive) in the assay with ACHN; > 100 µM (inactive) in the assay with SK-OV-3; 23 µM (inactive) in the assay with HL-60; 27.7 µM (inactive) with IGROV-1; > 100 µM (inactive) in the assay with COLO 205; 47.9 µM (inactive) in the assay with HOP-62. Moreover, the GI50 with HCT-15 is over 100 µM; in the assay with SW-620, 18.5 µM (inactive); with SK-MEL-28 it was > 100 µM (inactive); with HCC 2998, > 100 µM (inactive).
For `C=CCc1cc(OC)c2c(c1)C(O)CC(c1ccc(OC)c(OC)c1)O2` (stereo unspecified), the GI50 in the assay on A549, in the assay with SNB-19, in the assay on SK-MEL-2, with HT-29, with UO-31 and with ACHN was > 100 µM (inactive) each time. For the same molecule, the GI50 was > 100 µM (inactive) with SK-OV-3; 24.9 µM (inactive) with HL-60; > 100 µM (inactive) in the assay with IGROV-1; > 100 µM (inactive) in the assay with COLO 205; > 100 µM (inactive) in the assay on HOP-62; over 100 µM with HCT-15. Also, the GI50 in the assay on SW-620, with SK-MEL-28 and in the assay on HCC 2998 was > 100 µM (inactive) throughout.
In the case of `CCN(CC)c1ccc(/N=C2\C=C(Cl)C(=O)c3ncccc32)c(C)c1`, the GI50 is 9.71 µM (inactive) in the assay with A549; 2.88 µM (inactive) in the assay on Malme-3M; 21.3 µM (inactive) in the assay on SNB-19; 7.74 µM (inactive) with SK-MEL-2; 15.8 µM (inactive) in the assay on HT-29; 12.4 µM (inactive) in the assay with UO-31. In addition, the GI50 was 2.96 µM (inactive) in the assay with ACHN; 31.3 µM (inactive) with SK-OV-3; 1.86 µM (inactive) in the assay on HL-60; 11.1 µM (inactive) in the assay on IGROV-1; 4.2 µM (inactive) with COLO 205; 5.37 µM (inactive) with HOP-62. Also, the results for the GI50 in the assay on HCT-15, in the assay with SW-620 and in the assay with SK-MEL-28 were 3.85 µM, 4.05 µM (inactive) and 8.2 µM (inactive), respectively.
Turning to `CN(C)c1nc(Oc2nc(N(C)C)nc(N(C)C)n2)nc(N(C)C)n1`, the GI50 is 67 µM (inactive) with A549; > 100 µM (inactive) in the assay with Malme-3M; > 100 µM (inactive) in the assay with A498; > 100 µM (inactive) in the assay on SNB-19; > 100 µM (inactive) in the assay on SK-MEL-2; > 100 µM (inactive) with HT-29. In addition, the GI50 is > 100 µM (inactive) in the assay on UO-31; > 100 µM (inactive) in the assay on ACHN; > 100 µM (inactive) in the assay with SK-OV-3; 52.5 µM (inactive) with HL-60; > 100 µM (inactive) in the assay on IGROV-1; 22.1 µM (inactive) in the assay on COLO 205. In addition, the concentration for 50% growth inhibition (GI50) in the assay with HCT-15 is over 100 µM; in the assay on SW-620, > 100 µM (inactive); in the assay on SK-MEL-28, > 100 µM (inactive); in the assay with HCC 2998, 88.7 µM (inactive).
On to `Nc1nc(SCC(=O)c2ccccc2)c2[nH]cnc2n1`, for which the GI50 with A549, in the assay with Malme-3M, with A498, with SNB-19, in the assay on SK-MEL-2 and in the assay on HT-29 was > 100 µM (inactive) throughout. In addition, the GI50 in the assay on ACHN, in the assay with SK-OV-3, in the assay with HL-60, with IGROV-1, with COLO 205 and in the assay with HOP-62 was > 100 µM (inactive) throughout. The GI50 is over 100 µM in the assay with HCT-15, > 100 µM (inactive) in the assay on SW-620, > 100 µM (inactive) with SK-MEL-28 and > 100 µM (inactive) with HCC 2998.
For the molecule `NCc1cc(O)c(O)c(O)c1`, the GI50 with A549, with Malme-3M, in the assay with A498, in the assay on SNB-19, in the assay on SK-MEL-2 and in the assay on HT-29 was > 100 µM (inactive) throughout. Also, the GI50 with UO-31 was > 100 µM (inactive); in the assay on ACHN, > 100 µM (inactive); in the assay with SK-OV-3, > 100 µM (inactive); in the assay with HL-60 it was 80.7 µM (inactive); with IGROV-1, > 100 µM (inactive); in the assay on COLO 205, > 100 µM (inactive). For the same molecule, the GI50 with HOP-62 is > 100 µM (inactive); in the assay on HCT-15, over 100 µM; in the assay on SW-620, > 100 µM (inactive); in the assay with SK-MEL-28, > 100 µM (inactive).
On to `COc1ccc(C2=NN(C(C)=O)c3nc4ccccc4nc3O2)cc1`, for which the GI50 in the assay with A549 was 40.6 µM (inactive); with Malme-3M, 70.6 µM (inactive); in the assay with SNB-19 it was 27 µM (inactive); in the assay with SK-MEL-2 it was 8.02 µM (inactive); in the assay with HT-29 it was > 100 µM (inactive); in the assay with UO-31, 46.9 µM (inactive). The GI50 is 24.4 µM (inactive) in the assay on ACHN; > 100 µM (inactive) with HL-60; 3.33 µM (inactive) with IGROV-1; > 100 µM (inactive) in the assay with COLO 205; 23.1 µM (inactive) in the assay with HOP-62; 46.6 µM with HCT-15. In addition, the figures for the GI50 in the assay with SW-620, in the assay with SK-MEL-28 and in the assay on HCC 2998 were > 100 µM (inactive), 92.3 µM (inactive) and > 100 µM (inactive), respectively.
As for `O=c1c(Sc2c(O)c3ccccc3c3ccccc3c2=O)c(O)c2ccccc2c2ccccc12`, the GI50 was 44.6 µM (inactive) in the assay on A549; 25.2 µM (inactive) in the assay on Malme-3M; 19.3 µM (inactive) with SNB-19; 18.9 µM (inactive) with SK-MEL-2; 66.2 µM (inactive) in the assay on HT-29; 43.6 µM (inactive) in the assay with UO-31. Besides, the GI50 with ACHN is 25.4 µM (inactive); in the assay with SK-OV-3 it was > 100 µM (inactive); in the assay with HL-60 it was 15.6 µM (inactive); in the assay on IGROV-1, 47.2 µM (inactive); in the assay with COLO 205, 41.6 µM (inactive); in the assay on HOP-62, 29.5 µM (inactive). In addition, the 50% growth inhibitory concentration (GI50) in the assay with HCT-15 was 20.5 µM; with SW-620, 63.8 µM (inactive); in the assay with SK-MEL-28 it was 33 µM (inactive); with HCC 2998, 32.7 µM (inactive).
Take `CC(C)NC1CCCCC2c3ccccc3C12O` (stereo unspecified): the GI50 in the assay with A549, in the assay on Malme-3M, with SNB-19, with SK-MEL-2, in the assay with HT-29 and in the assay with UO-31 was > 100 µM (inactive) in each case. Further, the GI50 in the assay with ACHN was > 100 µM (inactive); with SK-OV-3, > 100 µM (inactive); in the assay with HL-60 it was > 100 µM (inactive); in the assay on COLO 205, > 100 µM (inactive); with HOP-62, > 100 µM (inactive); with HCT-15 it was over 100 µM. The GI50 with SW-620 and in the assay with SK-MEL-28 was > 100 µM (inactive) throughout.
In the case of `O=C(O)C12C3CCCC1C2CC3` (stereo unspecified), the GI50 with A549, in the assay with Malme-3M, in the assay on A498, in the assay with SNB-19, in the assay with SK-MEL-2 and with HT-29 was > 100 µM (inactive) throughout. Moreover, the GI50 in the assay with UO-31, in the assay with ACHN, in the assay with SK-OV-3, with HL-60, in the assay on IGROV-1 and in the assay on COLO 205 was > 100 µM (inactive) each time. The values for the GI50 in the assay on HOP-62, in the assay with HCT-15 and with SK-MEL-28 were > 100 µM (inactive), over 100 µM and > 100 µM (inactive), respectively.
With `Clc1ccc(/N=N/c2nc3ccccc3nc2/N=N/c2ccc(Cl)cc2Cl)c(Cl)c1`, the GI50 with A549 is > 100 µM (inactive); with Malme-3M it was > 100 µM (inactive); in the assay with A498 it was > 100 µM (inactive); with SNB-19, 65.8 µM (inactive); in the assay with SK-MEL-2, > 100 µM (inactive); in the assay on HT-29 it was > 100 µM (inactive). For the same molecule, the GI50 with UO-31 was > 100 µM (inactive); in the assay with ACHN it was 45.9 µM (inactive); with HL-60, 31.5 µM (inactive); in the assay on IGROV-1, > 100 µM (inactive); in the assay on COLO 205, > 100 µM (inactive); in the assay on HOP-62 it was > 100 µM (inactive). The GI50 was over 100 µM in the assay on HCT-15, > 100 µM (inactive) in the assay on SW-620, > 100 µM (inactive) in the assay on SK-MEL-28 and > 100 µM (inactive) in the assay on HCC 2998.
`CCCN(CCC)c1c([N+](=O)[O-])cc(C(=O)N(CC)CC)cc1[N+](=O)[O-]`: the GI50 with A549 is 12.3 µM (inactive); in the assay on Malme-3M, 16.3 µM (inactive); in the assay with SNB-19, 20 µM (inactive); in the assay on SK-MEL-2 it was 16.7 µM (inactive); in the assay on HT-29, 22.6 µM (inactive); in the assay with UO-31 it was 18 µM (inactive). The GI50 in the assay with ACHN was 25.5 µM (inactive); in the assay on SK-OV-3 it was 25.5 µM (inactive); in the assay with HL-60, 14 µM (inactive); in the assay with IGROV-1 it was 32.3 µM (inactive); in the assay with COLO 205, 18.1 µM (inactive); in the assay with HOP-62, 29.4 µM (inactive). Moreover, the GI50 in the assay on HCT-15 was 21.4 µM; with SW-620 it was 28.6 µM (inactive); in the assay with SK-MEL-28, 22.9 µM (inactive); in the assay on HCC 2998, 37.1 µM (inactive).

Usually GI50 stands for the concentration giving 50% growth inhibition.
